These results are taken from US9868736B2, “Deubiquitinase inhibitors and methods for use of the same” (THE REGENTS OF THE UNIVERSITY OF MICHIGAN, priority 2013, dated 2018).

The structures appear in SMILES notation. ≈ marks a conversion by molar mass, not a printed value. Entries after “also recorded” stand apart in the source; their conditions may differ. Like-named read-outs stand apart in the source and are kept apart here. Where only a bound is given, the exact number is not on record here.

A short description of one data set: aqueous solubility. The class given is physicochemical.
The target in data set [1] is T1, Usp9x (Homo sapiens, UniProt Q93008). Nature of the data set: Usp9x activity, Mcl-1 and PARP in tumors extracted from treated mice. The arrangement: from tissue; host or cells: MM1.S xenograft tumour extracted from NSG mice. The following applies: 15 mg/kg, tumors extracted one hour after last injection. The class given is in vivo, NSG mice. On the procedure:
To analyze that potential, mice were euthanized one hour after their last injection and tumors were extracted, photographed and flash-frozen on dry ice. Tumor tissue was sheared in liquid nitrogen, ground to a powder with a mortar and pestle and proteins extracted to assess Usp9x activity in 20 μg of protein from each tumor specimen. Tumors extracted from control and 15 mg/kg G9 treated mice were assessed for Usp9x activity as described above. […] Also shown are the effects of treatment on Usp9x and Usp24 protein, the latter a DUB closely related to Usp9x. The effect of G9 on the Usp9x substrate Mcl-1, and on cleavage of caspase substrate PARP, are also shown.

The target in data set [2] is T1, Usp9x. Nature of the data set: DUB activity (HA-Ub vinyl-sulfone labelling) in lysates of treated intact cells. The class given is cell-based. The arrangement: endogenous in cells; host or cells: Z138 lymphoma, MM1.S/MM1.ST myeloma, primary PCL cells, A375 and vemurafenib-resistant A375 melanoma. The following applies: for inhibition at 5 µM: MM1.ST or PCL cells. On the procedure:
In brief, control and treated cells were lysed by sonication in DUB assay buffer [50 mM Tris-HCl (pH 7.5), 5 mM MgCl2, 250 mM sucrose, 1 mM PMSF, 1× Roche proteinase inhibitory cocktail] and 20 μg of protein from the supernatant fraction (after a 14,000×g spin) were incubated with 200 nM HA-Ub vinyl-sulfone (Boston Biochem) in a final volume of 20 μl. After 90 min at 37° C., reactions were stopped with the addition of 5×-sample buffer. DUB activity was detected by SDS-PAGE resolution of the protein followed by nitrocellulose membrane transfer and immunoblotting with anti-HA.
The time required for G9-mediated Usp9x inhibition in intact multiple myeloma (MM1.S) cells and primary tumor cells from a patient with plasma cell leukemia (PCL) was investigated. MM1.ST (FIG. 1, left) or PCL (FIG. 1, right) cells were treated with 5 μM of compound for the time indicated before Usp9x activity was assessed as described above.

A further data set deals with MM1.S tumor. Nature of the data set: MM1.S tumor growth in NSG mice. The format is in vivo, NOD/SCID/gamma-2 knockout mice (NSG). As to the method: Ten million MM1.S tumor cells were injected into the dorsal region of twenty female NOD/SCID/gamma-2 knockout mice (NSG) weighing ˜20 grams each. After 3 weeks tumors became visible and measurable with calipers. Mice were separated into four groups of 5 mice each and IP injected with G9 dissolved in 55% dimethyl sulfoxide, 25% polyethylene glycol 300, 20% phosphate-buffered saline at dose levels of 0, 2.5, 5 and 10 mg/kg mouse body weight. Animals were injected once per day for 14 days and tumor growth (measured with calipers) and animal weight were monitored over the treatment interval. The resulting changes in tumor growth for each group are shown and represented as the average+/−standard error of the mean for each group. The p-values were calculated using GraphPad InStat. P-values lower than 0.05 are considered significant. […] Animal weight was not affected by G9 injection in any of the mice. […] Twenty female NSG mice were inoculated subcutaneously with 10 million MM1.S cells in Matrigel and cell culture media (1:1) in a total volume of 0.1 mL. When tumors were measurable with calibers (3 weeks post tumor cell injection), mice were divided into 4 groups of five mice each and treated with the dose of G9 indicated. Tumor growth (left) and animal weight (right) were recorded at the interval noted. The results represent the average+/−SD of 5 animals per data point. P-values <0.05 are considered significant and were calculated using GraphPad InStat.
A second animal study was conducted in NSG mice with mice receiving higher dose levels of G9. Tumor inoculation and compound administration were similar to those utilized in the lower dose study. However, 3 mice per treatment group were used in this study and additional G9 doses were tested for safety and efficacy. […] NSG mice were inoculated with MM1.S tumors as described in FIG. 7. When tumors were measurable with calipers, mice were placed into 5 groups of 3 mice each and treated with G9 at 0, 5, 10, 15 and 20 mg/kg for 12 days with daily injection. Tumor size (left) and animal weight (right) were recorded over the treatment interval. […] The result of G9 treatment is also depicted as tumor volume over time for each treatment group (FIG. 4—top). Tumors extracted from each of the three mice in each treatment group following the last injection were photographed and shown in FIG. 4 (bottom). […] Control and treated mouse tumor sizes are shown on the left. Bars from left to right in each treatment group represent tumor size after 0, 4, 6, 8 and 11 days of treatment. Each bar represents the average+/−S.D. of measurements made in 3 mice per group. The significance of change in tumor volume between treated and control mice was calculated using GraphPad InStat. P-values<0.05 are considered significant. On the bottom, tumors were extracted from control and treated mice and photographed. Each row illustrates tumor from each of the three mice in the treatment group noted on the top of each row.

A further data set deals with murine norovirus. Nature of the data set: antiviral screen against murine norovirus in macrophages. The following applies: RAW cells, Swiss Webster and Balb/c bone marrow derived macrophages, FIG. 8. The format is cell-based. The text has this: G9 was screened in RAW cells, Swiss Webster bone marrow derived macrophages and Balb/c bone marrow derived macrophages, compared to vehicle (DMSO), prior compound WP1130 and compound VM030. […] VM030 has a structure of […]

T1 sequence (Q93008 whole entry): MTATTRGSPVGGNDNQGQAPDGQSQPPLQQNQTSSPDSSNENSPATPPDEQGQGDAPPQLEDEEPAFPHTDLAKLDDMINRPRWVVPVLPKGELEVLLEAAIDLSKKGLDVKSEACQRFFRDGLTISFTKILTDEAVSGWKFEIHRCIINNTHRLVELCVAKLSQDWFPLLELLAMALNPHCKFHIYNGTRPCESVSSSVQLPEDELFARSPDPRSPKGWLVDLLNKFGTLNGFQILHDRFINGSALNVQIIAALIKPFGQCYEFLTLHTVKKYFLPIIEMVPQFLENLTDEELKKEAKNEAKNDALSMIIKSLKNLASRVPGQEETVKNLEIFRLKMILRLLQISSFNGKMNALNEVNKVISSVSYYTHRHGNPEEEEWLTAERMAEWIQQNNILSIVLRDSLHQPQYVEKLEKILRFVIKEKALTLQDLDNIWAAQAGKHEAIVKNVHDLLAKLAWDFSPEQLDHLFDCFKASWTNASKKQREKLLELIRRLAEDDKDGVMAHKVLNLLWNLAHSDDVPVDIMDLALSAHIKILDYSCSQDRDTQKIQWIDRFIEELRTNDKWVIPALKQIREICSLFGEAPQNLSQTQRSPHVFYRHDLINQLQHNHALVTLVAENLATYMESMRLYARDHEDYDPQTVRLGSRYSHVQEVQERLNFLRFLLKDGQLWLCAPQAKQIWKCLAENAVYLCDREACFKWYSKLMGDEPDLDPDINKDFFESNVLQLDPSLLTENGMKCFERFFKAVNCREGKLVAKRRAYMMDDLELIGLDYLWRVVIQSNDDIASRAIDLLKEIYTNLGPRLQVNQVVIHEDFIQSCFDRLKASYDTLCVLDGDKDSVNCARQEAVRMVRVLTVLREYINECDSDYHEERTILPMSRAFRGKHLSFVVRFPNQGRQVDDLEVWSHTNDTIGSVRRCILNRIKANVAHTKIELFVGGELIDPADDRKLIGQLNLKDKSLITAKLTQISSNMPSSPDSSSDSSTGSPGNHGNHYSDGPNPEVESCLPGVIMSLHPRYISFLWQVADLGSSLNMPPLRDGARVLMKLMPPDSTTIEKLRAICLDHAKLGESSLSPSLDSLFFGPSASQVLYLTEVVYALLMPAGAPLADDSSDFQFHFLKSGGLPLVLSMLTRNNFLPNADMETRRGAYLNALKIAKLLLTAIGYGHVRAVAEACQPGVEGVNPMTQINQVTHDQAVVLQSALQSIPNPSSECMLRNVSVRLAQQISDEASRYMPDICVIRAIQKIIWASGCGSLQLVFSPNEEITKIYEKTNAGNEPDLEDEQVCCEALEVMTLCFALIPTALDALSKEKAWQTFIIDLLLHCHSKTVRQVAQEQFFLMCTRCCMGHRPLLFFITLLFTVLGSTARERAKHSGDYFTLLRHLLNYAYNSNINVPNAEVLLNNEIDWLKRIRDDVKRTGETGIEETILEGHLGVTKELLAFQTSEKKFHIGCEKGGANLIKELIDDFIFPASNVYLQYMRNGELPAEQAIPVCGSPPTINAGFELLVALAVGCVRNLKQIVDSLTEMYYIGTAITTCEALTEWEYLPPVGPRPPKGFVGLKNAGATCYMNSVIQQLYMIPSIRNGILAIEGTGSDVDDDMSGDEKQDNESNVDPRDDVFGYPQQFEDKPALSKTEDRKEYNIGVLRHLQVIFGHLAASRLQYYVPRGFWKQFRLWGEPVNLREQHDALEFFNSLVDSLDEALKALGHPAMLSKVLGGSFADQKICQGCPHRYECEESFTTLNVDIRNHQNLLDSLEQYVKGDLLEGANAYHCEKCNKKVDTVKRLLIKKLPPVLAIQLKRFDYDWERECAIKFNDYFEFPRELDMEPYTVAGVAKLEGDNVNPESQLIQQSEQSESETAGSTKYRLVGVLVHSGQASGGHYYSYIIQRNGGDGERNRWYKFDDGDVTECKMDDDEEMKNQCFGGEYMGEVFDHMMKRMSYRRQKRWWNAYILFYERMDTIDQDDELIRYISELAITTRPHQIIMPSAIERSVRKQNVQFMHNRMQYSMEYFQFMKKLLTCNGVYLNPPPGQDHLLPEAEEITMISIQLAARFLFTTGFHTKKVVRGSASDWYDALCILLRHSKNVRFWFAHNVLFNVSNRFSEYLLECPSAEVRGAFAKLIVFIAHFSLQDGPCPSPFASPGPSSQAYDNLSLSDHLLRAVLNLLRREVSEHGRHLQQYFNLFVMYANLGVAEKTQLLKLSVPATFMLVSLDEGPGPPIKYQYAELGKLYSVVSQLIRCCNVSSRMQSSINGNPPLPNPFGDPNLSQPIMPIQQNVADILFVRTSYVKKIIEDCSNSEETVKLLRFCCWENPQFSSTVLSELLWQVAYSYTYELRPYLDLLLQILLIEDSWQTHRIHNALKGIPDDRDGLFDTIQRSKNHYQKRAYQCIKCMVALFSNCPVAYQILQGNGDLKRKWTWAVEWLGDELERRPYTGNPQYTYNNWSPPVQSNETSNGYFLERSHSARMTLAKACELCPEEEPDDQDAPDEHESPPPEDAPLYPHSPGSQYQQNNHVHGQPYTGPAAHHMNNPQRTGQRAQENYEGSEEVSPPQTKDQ

By solubility is commonly meant how much of the substance goes into solution per volume. For orientation: inhibition means the share of the control response that was lost under treatment. For `CCCC(NC(=O)/C(C#N)=C/c1nc(Cl)ccc1Cl)c1ccc(OCCN2CCOCC2)cc1` (centres unmarked) [Compound G9, (E)-2-Cyano-3-(3,6-dichloropyridin-2-yl)-N-(1-(4-(2-morpholinoethoxy)phenyl)butyl)acrylamide], the “solubility compared with earlier inhibitor” value in the data set “aqueous solubility” was “improved solubility”. In addition, the concentration in solution in “aqueous solubility” (aqueous medium (not specified further)) (solubility) was 19.8 µM (≈ 9.97 µg/mL). The “Mcl-1 protein levels in MM1.S tumors” value at Usp9x [1] is recorded as “reduces Mcl-1 protein levels”. On Usp9x [1], the “Usp9x DUB activity in MM1.S tumors” value is on record as “reduces Usp9x DUB activity”. Also, at Usp9x [1], the “apoptosis (PARP cleavage) in MM1.S tumors” value is reported as “activates apoptosis”. Further, the Usp9x activity result at Usp9x [2] (A375 melanoma cells and vemurafenib-resistant A375 variant) is on record as “inhibition of Usp9x activity in either cell type; also recorded: reduced Usp5 (and Usp9x) activity in both cell types”. Moreover, the inhibition at 5 µM on Usp9x [2] (5 minutes, read-out: Usp9x activity inhibition) was > 80%; on Usp9x [2] (60 minute, read-out: Usp9x inhibition), 100%. On Usp9x [2] (Z138 lymphoma cells, 1.25, 2.5 and 5 μM, 4 hours), the “Usp9x activity in intact cells” value is given as “able to inhibit Usp9x activity in intact cells”. On Usp9x [2] (myeloma (MM1.S) cells, various concentrations, FIG. 10), the Usp9x inhibition entry was “inhibits Usp9x and Usp5”. In addition, the animal weight result was “not affected” in the data set on MM1.S tumor (IP once per day for 14 days, 2.5, 5 and 10 mg/kg); “some weight loss” in the data set on MM1.S tumor (daily injection for 12 days, 10-20 mg/kg). Also, the MM1.S tumor growth result in the data set on MM1.S tumor (IP once per day for 14 days, 2.5, 5 and 10 mg/kg (all doses)) was “reduced MM1.S tumor growth”; in the data set with MM1.S tumor (daily injection for 12 days, 5, 10, 15 and 20 mg/kg (all doses)), “suppressed MM1.S tumor growth”. Further, the “MM1.S tumor growth compared to controls” value with MM1.S tumor (IP once per day for 14 days, 5 and 10 mg/kg) is recorded as “significant reduction in MM1.S tumor growth”. Besides, the MM1.S tumor size entry with MM1.S tumor (daily injection for 12 days, 15 and 20 mg/kg) is recorded as “tumor regression”. Besides, in the data set on murine norovirus, the “antiviral activity against murine norovirus” value is listed as “exhibits antiviral activity against murine norovirus”.
